Counter-ions that a name gives are not always drawn. Marks after values point to notes of the source that are not given here.
Key:
[1] = system: blood pressure in normotensive rats; assay: Influence on blood pressure in normotensive rats; assay type: in vivo, rat; set-up: Systolic pressure / Diastolic pressure: unit not given beside the values; settings: for Diastolic pressure / Systolic pressure: anesthetized normotensive rats; for Diastolic pressure / Systolic pressure / reduction of diastolic blood pressure / reduction of systolic blood pressure: lowest hypotensive dose i.p.; for lowest hypotensive dose / reduction of diastolic blood pressure / reduction of systolic blood pressure: normotensive rats; for lowest hypotensive dose: lowest dose significantly lowering systolic and diastolic blood pressure; for reduction of diastolic blood pressure / reduction of systolic blood pressure: period of significant effect
Protocol: The tested compounds were administered i.p. after 15 min of stabilization period. The compounds were administered at the dose 10 mg/kg.

α1B-adrenoceptors = biological target: T1, α1B-adrenoceptors (Mus musculus, UniProt P97717); assay: Functional bioassay, isolated mouse spleen, noradrenaline contraction; assay type: biochemical; settings: noradrenaline as agonist; for Kb: read-out: pA2 ± S.E.M., α1B (converted)
T1 construct: The spleen was removed from male mice; from tissue; host or cells: isolated mouse spleen
T1 sequence (P97717 1-514): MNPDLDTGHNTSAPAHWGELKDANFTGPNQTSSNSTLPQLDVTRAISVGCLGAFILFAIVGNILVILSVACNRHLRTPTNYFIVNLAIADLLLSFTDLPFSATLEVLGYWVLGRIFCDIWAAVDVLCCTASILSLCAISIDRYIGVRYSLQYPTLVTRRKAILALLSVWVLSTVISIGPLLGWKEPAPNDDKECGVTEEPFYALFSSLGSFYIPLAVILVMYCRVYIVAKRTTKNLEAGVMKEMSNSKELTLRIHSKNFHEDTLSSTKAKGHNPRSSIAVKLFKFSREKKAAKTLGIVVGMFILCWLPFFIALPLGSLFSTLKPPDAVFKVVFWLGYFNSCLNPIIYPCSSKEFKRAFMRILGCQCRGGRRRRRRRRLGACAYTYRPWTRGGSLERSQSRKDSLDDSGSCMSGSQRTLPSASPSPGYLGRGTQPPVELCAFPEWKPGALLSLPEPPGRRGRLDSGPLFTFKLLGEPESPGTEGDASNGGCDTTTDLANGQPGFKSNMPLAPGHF
Protocol: The influence on α1B-adrenoceptors was evaluated using the isolated mouse spleen. The spleen was removed from male mice right after killing the anesthetized animal by cervical dislocation. […] The initial optimal tissues tension was set at 1.0 g. Through the 100 min of equilibration tissues were stimulated with noradrenaline (0.1−10.0 μM) three times with washing out until the contractile response become constant. Two cumulative concentration-response curves to noradrenaline, at an interval of 60 min, were established on each tissue both in the presence and absence of antagonist. The incubation with antagonists went on for 30 min. The experiments were carried out in the constant presence of propranolol (1 μM) to block β-adrenoceptors, and minimize the involvement of these adrenoceptors in the response to noradrenaline.
(§1) Data are means ± S.E.M. of at least 4 separate experiments. To establish Hill slopes for the agonist concentration–response curves and calculate EC50 values, curves were fitted to all the data by non-linear regression. The EC50 value in the presence and absence of antagonists was used to ascertain the concentration ratio (CR). Schild analysis was performed.

α1D-adrenoreceptors = biological target: T2, α1D-adrenoreceptors (Rattus norvegicus, UniProt P23944); assay: Functional bioassay, isolated rat aorta, noradrenaline contraction; assay type: biochemical; set-up: had aorta removed, denuded of endothelium and incubated in the Krebs-Henseleit solution; from tissue; host or cells: isolated rat aorta rings; settings: noradrenaline as agonist; for Kb: read-out: pA2 ± S.E.M., α1D (converted)
T2 sequence (P23944 1-561): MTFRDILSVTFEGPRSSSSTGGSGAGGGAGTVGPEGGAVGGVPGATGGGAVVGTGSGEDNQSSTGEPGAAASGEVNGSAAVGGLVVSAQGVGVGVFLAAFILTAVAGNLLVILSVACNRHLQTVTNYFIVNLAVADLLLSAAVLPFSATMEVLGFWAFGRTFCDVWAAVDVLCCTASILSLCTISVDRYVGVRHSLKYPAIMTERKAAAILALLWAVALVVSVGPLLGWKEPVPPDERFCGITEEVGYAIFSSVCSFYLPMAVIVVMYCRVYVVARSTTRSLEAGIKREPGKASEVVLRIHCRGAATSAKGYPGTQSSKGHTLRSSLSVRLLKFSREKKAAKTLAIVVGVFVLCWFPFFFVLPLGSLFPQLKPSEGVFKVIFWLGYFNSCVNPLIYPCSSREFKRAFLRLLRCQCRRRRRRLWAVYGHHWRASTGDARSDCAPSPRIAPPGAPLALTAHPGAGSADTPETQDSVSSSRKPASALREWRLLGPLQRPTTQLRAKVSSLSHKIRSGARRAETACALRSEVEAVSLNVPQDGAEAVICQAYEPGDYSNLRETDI
Protocol: Finally, the influence on α1D-adrenoreceptors was investigated using the isolated rat aorta. […] The aorta rings were maintained at optimal tension of 2.0 g. During 3 h of equilibration tissues were stimulated with noradrenaline three times (0.3 μM). Two cumulative concentration-response curves to noradrenaline, at an interval of 60 min, were established on each tissue both in the presence and absence of antagonist. The incubation with antagonists went on for 30 min. The experiments were carried out in the constant presence of yohimbine (0.1 μM) and propranolol (1 μM) to block α2- and β-adrenoceptors, respectively.
as §1

α1-adrenoceptor = α1-adrenoceptor radioligand binding assay ([3H]-prazosin, rat cerebral cortex); settings: read-out: Adrenergic receptors Ki α1
Protocol: The α1- and β1-adrenoceptor radioligand binding assay was performed on rat cerebral cortex. […] The cell pellet was resuspended in the Tris–HCl buffer and centrifuged again. Radioligand binding assays were performed in plates (MultiScreen/Millipore). […] The incubation was terminated by rapid filtration through glass fiber filters (Whatman GF/C) using a vacuum manifold (Millipore). The filters were then washed twice with the assay buffer and placed in scintillation vials with a liquid scintillation cocktail. […] All the assays were made in duplicate and the inhibitory constants (Ki) were estimated.
LO–labeled ligand concentration, KD–dissociation constant of labeled ligand

[2] = Control (before administration)

Row | Schild slope ± S.E.M., α1B (α1B-adrenoceptors) | SMILES | Diastolic pressure ([1]; 5 min) | Systolic pressure ([1]; 5 min) | Diastolic pressure ([1]; 10 min) | Systolic pressure ([1]; 10 min) | Diastolic pressure ([1]; 20 min) | Systolic pressure ([1]; 20 min) | Diastolic pressure ([1]; 30 min) | Systolic pressure ([1]; 30 min) | Diastolic pressure ([1]; 40 min) | Systolic pressure ([1]; 40 min) | Diastolic pressure ([1]; 50 min) | Systolic pressure ([1]; 50 min) | Diastolic pressure ([1]; 60 min) | Systolic pressure ([1]; 60 min) | Diastolic pressure [1, 2] | Systolic pressure [1, 2] | lowest hypotensive dose [1] [mg/kg] | reduction of diastolic blood pressure [1] | reduction of systolic blood pressure [1] | other results
1 | 1.06 ± 0.05 | COc1ccccc1N1CCN(CCCOc2cc(C)cc(C)c2C)CC1 [HBK-19, 1N-[3-(2,3,5-trimethylphenoxy)propyl]-4N-(2-methoxyphenyl)piperazine hydrochloride] | 94.5 ± 2.6 | 121.0 ± 4.0^b | 87.5 ± 0.4^c | 116.0 ± 3.5^c | 89.0 ± 2.3^b | 111.5 ± 3.2^c | 87.0 ± 2.9^c | 110.0 ± 2.3^c | 84.5 ± 1.4^c | 107.5 ± 3.2^c | 83.5 ± 1.4^c | 106.0 ± 3.5^c | 84.0 ± 0.6^c | 106.0 ± 4.0^c | 98.0 ± 4.6 | 127.0 ± 4.0 | 0.625 | 9−15% | 5−17% | Kb (α1B-adrenoceptors): 8.51 nM; Schild slope ± S.E.M., α1D (α1D-adrenoreceptors): 1.03 ± 0.09; Kb (α1D-adrenoreceptors): 4.9 nM; Ki (α1-adrenoceptor): 22.7 nM
2 | 1.03 ± 0.12 | COc1ccccc1N1CCN(CCCOc2cc(C)ccc2Cl)CC1 [HBK-16, 1N-[3-(2-chloro-5-methylphenoxy)propyl]-4N-(2-methoxyphenyl)piperazine hydrochloride] | 95.0 ± 5.1 | 123.2 ± 3.3 | 93.7 ± 5.1 | 121.2 ± 3.2 | 91.3 ± 5.0^b | 114.8 ± 2.0^b | 89.8 ± 5.2^a | 113.0 ± 2.4^c | 87.7 ± 4.7^b | 110.3 ± 2.1^c | 88.0 ± 4.3^c | 110.8 ± 2.0^b | 87.7 ± 4.6^b | 110.7 ± 1.9^c | 97.0 ± 4.3 | 124.7 ± 3.1 | 0.1 | 6−10% | 8−11% | Kb (α1B-adrenoceptors): 6.17 nM; Schild slope ± S.E.M., α1D (α1D-adrenoreceptors): 1.11 ± 0.12; Kb (α1D-adrenoreceptors): 0.724 nM; Ki (α1-adrenoceptor): 5 nM
3 | 1.03 ± 0.18 | COc1ccccc1N1CCN(CCCOc2c(C)cc(C)cc2C)CC1 [HBK-18, 1N-[3-(2,4,6-trimethylphenoxy)propyl]-4N-(2-methoxyphenyl)piperazine hydrochloride] | 90.7 ± 7.1 | 117.7 ± 9.1 | 85.5 ± 7.5 | 112.7 ± 7.7 | 79.5 ± 7.8^a | 96.5 ± 8.9^b | 78.3 ± 7.2^a | 93.8 ± 8.7^c | 78.8 ± 7.0^b | 91.8 ± 10.0^b | 78.7 ± 5.6^c | 90.7 ± 8.6^b | 77.5 ± 6.0^b | 90.2 ± 9.2^a | 94.3 ± 6.4 | 125.7 ± 8.2 | 0.01 | 16−18% | 23−28% | Kb (α1B-adrenoceptors): 4.47 nM; Schild slope ± S.E.M., α1D (α1D-adrenoreceptors): 1.01 ± 0.05; Kb (α1D-adrenoreceptors): 1.2 nM; Ki (α1-adrenoceptor): 5.2 nM

Row | SMILES | Schild slope ± S.E.M., α1B (α1B-adrenoceptors) | Diastolic pressure ([1]; 5 min) | Systolic pressure ([1]; 5 min) | Diastolic pressure ([1]; 10 min) | Systolic pressure ([1]; 10 min) | Diastolic pressure ([1]; 20 min) | Systolic pressure ([1]; 20 min) | Diastolic pressure ([1]; 30 min) | Systolic pressure ([1]; 30 min) | Diastolic pressure ([1]; 40 min) | Systolic pressure ([1]; 40 min) | Diastolic pressure ([1]; 50 min) | Systolic pressure ([1]; 50 min) | Diastolic pressure ([1]; 60 min) | Systolic pressure ([1]; 60 min) | Diastolic pressure [1, 2] | Systolic pressure [1, 2] | lowest hypotensive dose [1] [mg/kg] | reduction of diastolic blood pressure [1] | reduction of systolic blood pressure [1] | other results
4 | COc1ccccc1N1CCN(CCOCCOc2c(C)cccc2C)CC1.Cl [HBK-14, 1-[(2,6-dimethylphenoxy)ethoxyethyl]-4-(2-methoxyphenyl)piperazine hydrochloride] | 1.03 ± 0.03 | 105.2 ± 6.1 | 135.2 ± 7.3 | 103.0 ± 5.8 | 131.2 ± 6.8^c | 97.3 ± 6.0^c | 127.3 ± 6.6^c | 95.2 ± 6.1^c | 125.3 ± 7.0^c | 92.3 ± 6.2^c | 124.2 ± 7.0^c | 94.0 ± 5.8^c | 127.3 ± 6.3^c | 98.0 ± 5.1^c | 128.2 ± 5.4^c | 106.7 ± 4.3 | 138.3 ± 6.8 | 0.625 | 9−14% | 5−10% | Kb (α1B-adrenoceptors): 20 nM; Schild slope ± S.E.M., α1D (α1D-adrenoreceptors): 1.09 ± 0.10; Kb (α1D-adrenoreceptors): 1.38 nM
5 | COc1ccccc1N1CCN(CCOCCOc2c(C)cccc2Cl)CC1.Cl [HBK-15, 1-[(2-chloro-6-methylphenoxy)ethoxyethyl]-4-(2-methoxyphenyl)piperazine hydrochloride] | 0.96 ± 0.01 | 96.3 ± 3.7^c | 121.2 ± 4.8^c | 92.0 ± 4.3^c | 116.3 ± 6.0^c | 88.5 ± 3.5^c | 112.0 ± 5.5^c | 88.3 ± 2.9^c | 112.2 ± 4.2^c | 91.0 ± 3.2^c | 112.5 ± 4.4^c | 90.2 ± 2.7^c | 113.2 ± 3.7^c | 93.0 ± 1.2^c | 117.3 ± 3.0^c | 110.3 ± 2.2 | 139.0 ± 2.7 | 5.0 | 13−20% | 13−19% | Kb (α1B-adrenoceptors): 21.4 nM; Schild slope ± S.E.M., α1D (α1D-adrenoreceptors): 1.09 ± 0.09; Kb (α1D-adrenoreceptors): 1.26 nM

Reference: article PMC4971072, “Chemically Homogenous Compounds with Antagonistic Properties at All α1-Adrenoceptor Subtypes but not β1-Adrenoceptor Attenuate Adrenaline-Induced Arrhythmia in Rats” (Frontiers in Pharmacology, 2016)
